Test results reported in ChEMBL document CHEMBL5465560, “Selectivity Literature for EUbOPEN Chemogenomic Library” (2024).

What was measured:
[1] = molecular target: Serine/threonine-protein kinase MARK1 (Homo sapiens) (UniProt Q9P0L2); experiment: Selectivity interaction (KinomeScan (DiscoverX)) EUB0000229b MARK1; conditions: at 10 µM
[2] = molecular target: T1, Tyrosine-protein kinase Tec (Homo sapiens) (UniProt P42680); experiment: Selectivity interaction (KinomeScan (DiscoverX)) EUB0000229b TEC; conditions: at 10 µM
T1 sequence (whole entry): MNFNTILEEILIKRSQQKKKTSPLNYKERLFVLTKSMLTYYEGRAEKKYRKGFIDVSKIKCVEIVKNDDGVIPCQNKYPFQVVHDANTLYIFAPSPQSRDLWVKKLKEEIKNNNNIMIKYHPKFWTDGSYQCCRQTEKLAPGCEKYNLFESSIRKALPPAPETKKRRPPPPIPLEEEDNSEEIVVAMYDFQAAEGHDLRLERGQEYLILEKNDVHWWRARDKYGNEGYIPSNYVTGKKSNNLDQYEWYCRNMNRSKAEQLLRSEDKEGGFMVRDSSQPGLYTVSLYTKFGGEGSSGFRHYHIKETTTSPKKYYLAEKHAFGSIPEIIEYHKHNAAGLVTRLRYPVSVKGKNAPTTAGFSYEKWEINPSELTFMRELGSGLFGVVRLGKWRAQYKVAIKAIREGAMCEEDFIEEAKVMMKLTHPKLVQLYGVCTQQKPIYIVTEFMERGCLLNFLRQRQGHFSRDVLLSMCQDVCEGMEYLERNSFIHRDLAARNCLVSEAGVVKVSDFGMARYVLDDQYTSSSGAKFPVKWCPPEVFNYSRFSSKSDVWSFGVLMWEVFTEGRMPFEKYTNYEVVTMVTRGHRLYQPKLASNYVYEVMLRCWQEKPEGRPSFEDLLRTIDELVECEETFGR

[3] = molecular target: Serine/threonine-protein kinase MRCK alpha (Homo sapiens) (UniProt Q5VT25); experiment: Selectivity interaction (KinomeScan (DiscoverX)) EUB0000045b CDC42BPA
Sequence of Serine/threonine-protein kinase MRCK alpha (Homo sapiens) (Q5VT25 whole entry): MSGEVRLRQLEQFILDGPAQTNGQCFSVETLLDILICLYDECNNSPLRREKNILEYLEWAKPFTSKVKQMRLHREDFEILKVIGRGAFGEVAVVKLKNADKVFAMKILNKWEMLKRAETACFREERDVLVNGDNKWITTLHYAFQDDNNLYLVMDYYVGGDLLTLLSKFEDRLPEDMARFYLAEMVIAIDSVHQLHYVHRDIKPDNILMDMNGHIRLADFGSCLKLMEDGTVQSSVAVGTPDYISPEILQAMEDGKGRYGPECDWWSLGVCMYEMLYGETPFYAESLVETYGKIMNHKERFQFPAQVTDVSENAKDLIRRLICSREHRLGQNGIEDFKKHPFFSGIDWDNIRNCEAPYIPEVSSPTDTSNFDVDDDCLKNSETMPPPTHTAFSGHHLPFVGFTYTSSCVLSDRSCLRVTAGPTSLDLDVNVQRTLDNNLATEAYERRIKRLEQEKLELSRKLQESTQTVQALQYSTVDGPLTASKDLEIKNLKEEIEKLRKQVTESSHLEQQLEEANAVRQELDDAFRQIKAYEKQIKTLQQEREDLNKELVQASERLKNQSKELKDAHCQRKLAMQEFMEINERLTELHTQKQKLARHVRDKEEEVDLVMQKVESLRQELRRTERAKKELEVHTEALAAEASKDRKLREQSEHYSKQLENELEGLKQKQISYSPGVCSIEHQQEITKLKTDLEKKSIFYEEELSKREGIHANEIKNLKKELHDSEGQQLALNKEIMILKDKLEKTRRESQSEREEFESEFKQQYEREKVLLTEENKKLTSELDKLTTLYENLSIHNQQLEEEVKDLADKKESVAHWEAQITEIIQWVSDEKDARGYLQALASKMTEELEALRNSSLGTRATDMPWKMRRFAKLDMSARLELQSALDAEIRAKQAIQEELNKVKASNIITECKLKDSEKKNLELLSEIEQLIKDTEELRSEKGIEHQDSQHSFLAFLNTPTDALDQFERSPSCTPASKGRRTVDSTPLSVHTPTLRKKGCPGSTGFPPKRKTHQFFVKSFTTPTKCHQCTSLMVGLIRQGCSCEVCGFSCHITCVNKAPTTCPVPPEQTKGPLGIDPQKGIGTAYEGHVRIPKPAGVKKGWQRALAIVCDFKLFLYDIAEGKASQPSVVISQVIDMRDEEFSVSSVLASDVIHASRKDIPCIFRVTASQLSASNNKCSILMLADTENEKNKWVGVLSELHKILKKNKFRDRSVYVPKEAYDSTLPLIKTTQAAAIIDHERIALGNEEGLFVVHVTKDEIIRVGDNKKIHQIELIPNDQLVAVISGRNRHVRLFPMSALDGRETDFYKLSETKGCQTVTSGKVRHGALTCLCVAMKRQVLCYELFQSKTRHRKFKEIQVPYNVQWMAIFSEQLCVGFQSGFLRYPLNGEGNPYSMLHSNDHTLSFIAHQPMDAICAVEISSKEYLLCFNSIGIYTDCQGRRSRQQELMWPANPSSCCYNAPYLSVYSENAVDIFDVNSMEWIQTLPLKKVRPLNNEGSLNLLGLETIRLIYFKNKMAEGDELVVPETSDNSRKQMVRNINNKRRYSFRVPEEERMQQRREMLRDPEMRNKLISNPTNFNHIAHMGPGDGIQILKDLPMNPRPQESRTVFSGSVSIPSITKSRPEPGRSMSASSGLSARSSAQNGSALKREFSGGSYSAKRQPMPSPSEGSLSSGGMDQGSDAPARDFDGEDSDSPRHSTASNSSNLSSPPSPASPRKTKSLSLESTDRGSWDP

[4] = molecular target: T2, Serine/threonine-protein kinase Nek3 (Homo sapiens) (UniProt P51956); experiment: Selectivity interaction (KinomeScan (DiscoverX)) EUB0000045b NEK3
T2 sequence (whole entry): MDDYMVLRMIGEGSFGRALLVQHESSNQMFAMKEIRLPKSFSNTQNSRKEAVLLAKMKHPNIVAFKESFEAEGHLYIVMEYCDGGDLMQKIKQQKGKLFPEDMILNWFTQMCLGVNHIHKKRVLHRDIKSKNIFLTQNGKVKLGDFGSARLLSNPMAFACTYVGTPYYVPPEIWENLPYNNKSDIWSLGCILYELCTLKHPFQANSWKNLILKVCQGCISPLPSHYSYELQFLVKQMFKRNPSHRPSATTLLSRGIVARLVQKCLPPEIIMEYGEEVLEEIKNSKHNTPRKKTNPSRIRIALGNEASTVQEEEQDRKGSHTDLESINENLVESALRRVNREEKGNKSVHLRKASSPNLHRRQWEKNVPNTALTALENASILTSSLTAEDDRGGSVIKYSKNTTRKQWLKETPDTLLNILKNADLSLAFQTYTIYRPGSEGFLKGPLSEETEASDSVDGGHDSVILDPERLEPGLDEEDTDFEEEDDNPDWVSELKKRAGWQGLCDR

[5] = molecular target: Ephrin type-A receptor 2 (Homo sapiens) (UniProt P29317); experiment: Selectivity interaction (SelectScreen profiling (Invitrogen)) EUB0000607a EPHA2; conditions: at 2 µM
Sequence of Ephrin type-A receptor 2 (Homo sapiens) (P29317 whole entry): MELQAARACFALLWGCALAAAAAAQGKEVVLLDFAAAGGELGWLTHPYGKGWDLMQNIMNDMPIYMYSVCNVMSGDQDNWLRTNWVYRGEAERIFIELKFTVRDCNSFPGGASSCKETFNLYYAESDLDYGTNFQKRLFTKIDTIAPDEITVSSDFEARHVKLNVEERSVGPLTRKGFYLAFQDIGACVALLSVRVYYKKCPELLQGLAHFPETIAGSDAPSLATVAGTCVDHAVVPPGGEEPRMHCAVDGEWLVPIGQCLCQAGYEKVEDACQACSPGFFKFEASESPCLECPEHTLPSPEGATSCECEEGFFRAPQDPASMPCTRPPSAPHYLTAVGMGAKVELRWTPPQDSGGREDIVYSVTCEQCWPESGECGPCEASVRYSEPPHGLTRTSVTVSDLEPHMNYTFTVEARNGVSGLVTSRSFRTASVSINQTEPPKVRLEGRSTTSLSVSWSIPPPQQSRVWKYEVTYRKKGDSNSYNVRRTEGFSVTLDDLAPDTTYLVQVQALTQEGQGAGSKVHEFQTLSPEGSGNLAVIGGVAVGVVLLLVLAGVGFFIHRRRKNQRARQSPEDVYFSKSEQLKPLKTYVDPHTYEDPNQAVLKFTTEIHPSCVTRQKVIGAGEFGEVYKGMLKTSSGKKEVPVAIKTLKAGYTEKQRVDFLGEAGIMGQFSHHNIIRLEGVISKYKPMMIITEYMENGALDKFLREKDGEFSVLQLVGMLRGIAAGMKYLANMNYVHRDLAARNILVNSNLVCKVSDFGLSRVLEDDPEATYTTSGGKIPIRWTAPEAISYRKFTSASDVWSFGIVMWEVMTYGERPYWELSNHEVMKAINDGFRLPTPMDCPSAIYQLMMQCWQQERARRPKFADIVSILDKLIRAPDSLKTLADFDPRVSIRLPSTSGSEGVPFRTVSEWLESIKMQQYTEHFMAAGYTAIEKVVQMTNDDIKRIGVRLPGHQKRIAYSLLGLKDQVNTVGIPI

[6] = molecular target: Proto-oncogene tyrosine-protein kinase receptor Ret (Homo sapiens, UniProt P07949); experiment: Selectivity interaction (Kinase panel (Invitrogen)) EUB0000639a RET; conditions: at 200 nM
Sequence of Proto-oncogene tyrosine-protein kinase receptor Ret (P07949 whole entry): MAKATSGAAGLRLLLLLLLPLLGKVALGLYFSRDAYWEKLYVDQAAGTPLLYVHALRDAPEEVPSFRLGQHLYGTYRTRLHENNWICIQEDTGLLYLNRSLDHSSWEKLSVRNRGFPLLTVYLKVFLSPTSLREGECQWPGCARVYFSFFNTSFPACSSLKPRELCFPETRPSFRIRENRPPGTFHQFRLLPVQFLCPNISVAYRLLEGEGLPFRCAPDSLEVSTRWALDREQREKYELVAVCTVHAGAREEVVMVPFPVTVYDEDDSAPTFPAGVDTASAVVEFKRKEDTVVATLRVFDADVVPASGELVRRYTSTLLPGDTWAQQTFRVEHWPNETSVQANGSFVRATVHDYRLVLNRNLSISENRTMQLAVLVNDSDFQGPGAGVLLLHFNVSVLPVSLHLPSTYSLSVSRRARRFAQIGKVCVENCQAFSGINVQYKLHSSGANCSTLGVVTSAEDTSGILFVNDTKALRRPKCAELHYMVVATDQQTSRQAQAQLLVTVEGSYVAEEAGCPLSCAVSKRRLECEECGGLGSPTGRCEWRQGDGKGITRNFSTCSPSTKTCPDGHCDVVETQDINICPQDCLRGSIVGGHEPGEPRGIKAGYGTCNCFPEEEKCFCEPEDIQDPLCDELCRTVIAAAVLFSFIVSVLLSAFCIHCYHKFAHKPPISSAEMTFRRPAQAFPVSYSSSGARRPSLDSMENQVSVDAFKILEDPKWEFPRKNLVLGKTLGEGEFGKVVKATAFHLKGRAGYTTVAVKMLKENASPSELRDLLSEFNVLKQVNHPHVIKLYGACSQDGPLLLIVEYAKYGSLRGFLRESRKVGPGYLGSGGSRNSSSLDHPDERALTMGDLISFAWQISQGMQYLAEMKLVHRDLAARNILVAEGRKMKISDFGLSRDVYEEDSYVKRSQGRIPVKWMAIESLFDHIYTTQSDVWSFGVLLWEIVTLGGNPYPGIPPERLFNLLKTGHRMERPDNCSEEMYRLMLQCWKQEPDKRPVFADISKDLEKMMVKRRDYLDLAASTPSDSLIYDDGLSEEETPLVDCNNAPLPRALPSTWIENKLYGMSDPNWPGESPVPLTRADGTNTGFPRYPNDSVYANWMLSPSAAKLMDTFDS

[7] = molecular target: T3, Receptor-interacting serine/threonine-protein kinase 1 (Homo sapiens) (UniProt Q13546); experiment: Selectivity interaction (KinomeScan (DiscoverX)) EUB0000655a RIPK1; conditions: at 10 µM
T3 sequence (whole entry): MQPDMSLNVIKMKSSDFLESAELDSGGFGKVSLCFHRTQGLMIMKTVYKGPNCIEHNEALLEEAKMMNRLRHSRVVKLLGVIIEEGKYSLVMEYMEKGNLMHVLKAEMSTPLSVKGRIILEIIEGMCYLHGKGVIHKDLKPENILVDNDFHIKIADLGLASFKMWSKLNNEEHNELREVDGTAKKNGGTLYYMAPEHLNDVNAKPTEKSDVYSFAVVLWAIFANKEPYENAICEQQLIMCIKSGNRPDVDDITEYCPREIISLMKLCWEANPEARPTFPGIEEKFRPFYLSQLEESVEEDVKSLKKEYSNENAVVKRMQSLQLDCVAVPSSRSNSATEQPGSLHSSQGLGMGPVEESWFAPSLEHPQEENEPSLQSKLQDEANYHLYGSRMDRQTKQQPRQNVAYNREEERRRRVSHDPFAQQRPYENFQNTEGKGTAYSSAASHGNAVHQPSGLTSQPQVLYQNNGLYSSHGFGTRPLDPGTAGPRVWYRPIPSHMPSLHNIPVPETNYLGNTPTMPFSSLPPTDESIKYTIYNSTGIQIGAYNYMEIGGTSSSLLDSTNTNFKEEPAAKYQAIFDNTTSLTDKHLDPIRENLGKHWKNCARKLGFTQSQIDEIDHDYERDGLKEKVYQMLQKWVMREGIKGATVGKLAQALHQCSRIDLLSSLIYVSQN

[8] = molecular target: Fibroblast growth factor receptor 4 (Homo sapiens, UniProt P22455); experiment: Selectivity interaction (Ambit KINOMEscan and KiNATiv profiling in Jurkat cells) EUB0000090b FGFR4; type: cell-based; conditions: at 1 µM
Sequence of Fibroblast growth factor receptor 4 (P22455 22-802 limits assumed): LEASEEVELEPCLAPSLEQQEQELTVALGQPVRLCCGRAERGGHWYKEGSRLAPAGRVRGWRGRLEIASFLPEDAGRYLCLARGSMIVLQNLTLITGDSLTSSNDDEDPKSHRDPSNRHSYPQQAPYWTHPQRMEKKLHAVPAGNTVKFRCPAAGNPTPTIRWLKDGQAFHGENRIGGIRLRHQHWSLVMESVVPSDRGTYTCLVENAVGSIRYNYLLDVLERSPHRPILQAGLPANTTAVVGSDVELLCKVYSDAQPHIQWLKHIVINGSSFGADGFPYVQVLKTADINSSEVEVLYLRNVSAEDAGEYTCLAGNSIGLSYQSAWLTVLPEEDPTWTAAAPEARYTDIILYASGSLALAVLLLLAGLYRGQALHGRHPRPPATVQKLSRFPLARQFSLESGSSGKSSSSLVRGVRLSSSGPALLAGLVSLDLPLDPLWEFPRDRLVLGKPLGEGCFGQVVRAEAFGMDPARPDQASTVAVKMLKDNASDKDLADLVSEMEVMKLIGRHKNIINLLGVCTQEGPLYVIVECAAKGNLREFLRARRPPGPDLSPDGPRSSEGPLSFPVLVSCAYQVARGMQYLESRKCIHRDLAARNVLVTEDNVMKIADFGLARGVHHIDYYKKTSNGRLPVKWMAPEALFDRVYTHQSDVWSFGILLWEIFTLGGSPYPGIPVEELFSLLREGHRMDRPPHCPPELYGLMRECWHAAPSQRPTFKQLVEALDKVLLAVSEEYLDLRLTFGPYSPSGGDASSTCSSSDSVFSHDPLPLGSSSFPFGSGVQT

In the case of `COc1cc(N(C)c2ccnc3ccc(C(F)(F)F)cc23)cc(OC)c1OC`, the % binding [1] is reported as 98% and the % binding [2] is reported as 98%.

`C=CC(=O)Nc1cc(-n2c(=O)ccc3cnc4ccc(-c5ccc(NS(C)(=O)=O)cc5)cc4c32)ccc1C` showed a % of control ([3]; at 1 µM) of 100%, a % of control ([3]; at 10 µM) of 96% and a % of control ([4]; at 1 µM) of 98%. It also gave a % of control ([4]; at 10 µM) of 100%.

`CNC(=O)Nc1ccc(-c2nc(N3CC4CCC(C3)O4)c3cnn(C4CCC5(CC4)OCCO5)c3n2)cc1` showed a % of inhibition [5] of 8%.

With `CC[C@@H]1[C@H](F)C(=O)N[C@@H]1COc1nccc2cc(C(N)=O)c(OC)cc12` [ZIMLOVISERTIB] the % of inhibition [6] was 66%.

Molecule `CN(C)CCOc1ccc(-c2nc(-c3ccncc3)c(-c3ccc4c(c3)CC/C4=N\O)[nH]2)cc1` has a % of control [7] of 72%.

With `CN(C)C/C=C/C(=O)Nc1ccc(C(=O)N2CCCC(Nc3ncc(Cl)c(-c4c[nH]c5ccccc45)n3)C2)cc1` (stereo not given) the % of control [8] was 86%.
